Values quoted from earlier work as cited in patent publication US20030119753A1, “Novel ascorbic acid compounds, methods of synthesis and application use thereof” (priority 2001, published 2003).

Settings: relative to ascorbic acid

Question: With `O=C1O[C@H]([C@@H](O)CO)C(O)=C1OS(=O)(=O)O` [L-ascorbate 2-sulphate] as the molecule, how does the “more stable than ascorbic acid” value read?
Answer: The value was 20 times.
